Experimental data taken from US20080171780A1, “Process for Crystallization of Ramipril and Preparation of a Hydrated Form Thereof” (LUPIN LIMITED, priority 2004, published 2008).
Blank lines part the entries; values can stand above or below the compound they belong to.

Assays:
Assay type in all cases: physicochemical
[1] = In vitro drug release (dissolution) profile, USP apparatus 1, 0.1 N HCl; conditions: 50 RPM, solid composition with pregelatinized starch
Procedure: Optically pure Ramipril(I) obtained from example 1 is formulated as a solid pharmaceutical composition by conventional way of direct mixing process with excipients such as pregelatinized starch.
Ramipril(I) monohydrate obtained from example 5 is formulated as a solid pharmaceutical composition by conventional way of direct mixing process with excipients such as pregelatinized starch.
The in vitro drug release profile was carried out using USP apparatus 1,500 ml of 0.1 N HCl at 50 RPM. Following table provides a comparison of dissolution profile of Ramipril(I) crystallized from diethoxymethane as well as the Ramipril(I) monohydrate and prior art method.

[2] = Bulk density (B.D.) of crystalline material
From the text: The bulk density is an economically, commercially, and functionally important property. […] Moreover, when shipping powders over long distances a high bulk density results in reducing the shipping volume. A high bulk density compound also saves packing material and storage capacity.

[3] = Tapped density (T.D.) of crystalline material
[4] = Stability study at 40° C./75% RH, assay by HPLC; conditions: crystallized by Diethoxymethane
[5] = Thermal stability of the hydrate form; conditions: converts to anhydrous form on heating above 40° C.
Procedure: The novel hydrate of Ramipril(I) occurs in crystalline form. It is readily converted to the anhydrous moiety by heating at a temperature in the range from 40° C. to 42° C. under reduced pressure of 2 to 5 mm hg. The novel hydrate form is stable up to a temperature of 25° C. The monohydrate is transformed into anhydrous Ramipril(I), the so-called “anhydrate” on heating above 40° C. with a speed depending on the conditions of dehydration.

[6] = Present invention, solvent 2,2-Dimethoxy-propane
[7] = Present invention, solvent Diethoxymethane
[8] = Present invention, solvent Methyl formate
[9] = Present invention, solvent Nitromethane
[10] = Prior art method, solvent Ethanol-diethyl ether
[11] = Prior art method, solvent Ethanol-diisopropyl ether

% Drug release of the Label claim ([1]; 5 Min.): 18.8%
% Drug release of the Label claim ([1]; 10 Min.): 75%
SMILES: CCOC(=O)[C@H](CCc1ccccc1)N[C@@H](C)C(=O)N1[C@H](C(=O)O)C[C@@H]2CCC[C@@H]21 [Prior art Method]

bulk density [2]: 0.3 to 0.35 g/mL
SMILES: CCOC(=O)[C@H](CCc1ccccc1)N[C@@H](C)C(=O)N1[C@H](C(=O)O)C[C@@H]2CCC[C@@H]21 [anhydrous Ramipril(I)]

B.D. [2, 6]: 0.1 to 0.13 g/mL
B.D. [2, 7]: 0.22 to 0.24 g/mL
B.D. [2, 8]: 0.11 to 0.13 g/mL
B.D. [2, 9]: 0.12 to 0.14 g/mL
B.D. [2, 10]: 0.09 to 0.12 g/mL
B.D. [2, 11]: 0.08 to 0.1 g/mL
T.D. [3, 6]: 0.14 to 0.18 g/mL
T.D. [3, 7]: 0.32 to 0.37 g/mL
T.D. [3, 8]: 0.15 to 0.17 g/mL
T.D. [3, 9]: 0.15 to 0.17 g/mL
T.D. [3, 10]: 0.15 to 0.17 g/mL
T.D. [3, 11]: 0.13 to 0.15 g/mL
Assay by HPLC(%) ([4]; 40° C. ± 2° C./75% ± 5% RH, 1 Month): 99.5%
Assay by HPLC(%) ([4]; 40° C. ± 2° C./75% ± 5% RH, 2 Month): 99.2%
Assay by HPLC(%) ([4]; 40° C. ± 2° C./75% ± 5% RH, 3 Month): 99.12%
Assay by HPLC(%) ([4]; Initial): 99.68%
SMILES: CCOC(=O)[C@H](CCc1ccccc1)N[C@@H](C)C(=O)N1[C@H](C(=O)O)C[C@@H]2CCC[C@@H]21 [Ramipril(I), (2S,3aS,6aS)-1-[(S)-2-[[(S)-1-(ethoxycarbonyl)-3-phenylpropyl]-amino]propanoyl]octahydrocyclopenta[b]pyrrole-2-carboxylic acid]

The remaining lines, values behind:

SMILES: CCOC(=O)[C@H](CCc1ccccc1)N[C@@H](C)C(=O)N1[C@H](C(=O)O)C[C@@H]2CCC[C@@H]21 [Crystallised from Diethoxymethane, (2S,3aS,6aS)-1-[(S)-2-[[(S)-1-(ethoxycarbonyl)-3-phenylpropyl]-amino]propanoyl]octahydrocyclopenta[b]pyrrole-2-carboxylic acid]
% Drug release of the Label claim ([1]; 5 Min.): 48.4%
% Drug release of the Label claim ([1]; 10 Min.): 93.8%

SMILES: CCOC(=O)[C@H](CCc1ccccc1)N[C@@H](C)C(=O)N1[C@H](C(=O)O)C[C@@H]2CCC[C@@H]21.O [Monohydrate Ramipril(I)]
% Drug release of the Label claim ([1]; 5 Min.): 40.8%
% Drug release of the Label claim ([1]; 10 Min.): 87%
temperature up to which the form is stable [5]: ≤ 25 °C
